Laboratory results reported in patent US10981894B2, “Melanocortin subtype-2 receptor (MC2R) antagonists and uses thereof” (Crinetics Pharmaceuticals, Inc., priority 2018, dated 2021).

Biological target: hMC2 receptor (Homo sapiens, UniProt Q01718)
Assay: hMC2 membrane binding assay ([125I]ACTH (1-39) Tyr23, SPA)
Set-up: scale not given here
Settings: crude hMC2R membranes from CRE-bla-CHO-K1 cells expressing hMC2 receptor and hMRAP; [125I]ACTH (1-39) Tyr23 0.2 nM; 1.5 hours at room temperature; read-out: MC2R binding potency
In short: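 Ki comes from non-linear regression of SPA scintillation counts. Displacement of 0.2 nM [125I]ACTH(1-39) Tyr23 by compound dose series (usually 0–10,000 nM final) ran 1.5 h at room temperature. Membranes came from CHO-K1 CRE-bla cells stably expressing hMC2R plus hMRAP, bead-coupled in pH 7.4 buffer with 0.2% BSA.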

Sequence of hMC2 receptor (Q01718 whole entry): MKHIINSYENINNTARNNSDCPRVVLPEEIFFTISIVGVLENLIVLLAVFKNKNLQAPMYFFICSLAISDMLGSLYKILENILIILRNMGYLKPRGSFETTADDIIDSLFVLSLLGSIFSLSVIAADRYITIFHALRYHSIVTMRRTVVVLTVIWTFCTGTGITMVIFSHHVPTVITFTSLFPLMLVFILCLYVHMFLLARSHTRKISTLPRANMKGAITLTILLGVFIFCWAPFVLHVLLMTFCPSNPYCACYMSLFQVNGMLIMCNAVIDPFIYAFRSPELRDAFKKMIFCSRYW
Sequence of hMC2 receptor (Q8TCY5 whole entry partner): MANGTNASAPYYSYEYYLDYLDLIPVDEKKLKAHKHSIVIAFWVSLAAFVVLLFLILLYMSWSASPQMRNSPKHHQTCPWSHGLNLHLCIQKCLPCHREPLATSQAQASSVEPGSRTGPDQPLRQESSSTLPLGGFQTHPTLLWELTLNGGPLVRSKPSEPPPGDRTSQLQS

| Compound | Ki |
| --- | --- |
| CCOc1ncccc1-c1ccc(N2CCN(C(=O)c3ccc(OC)nc3C(F)(F)F)C[C@H]2CC)c(C(=O)NCCNC)c1F [Compound 1-164, 3-(2-ethoxypyridin-3-yl)-6-[(2R)-2-ethyl-4-[6-methoxy-2-(trifluoromethyl)pyridine-3-carbonyl]piperazin-1-yl]-2-fluoro-N-[2-(methylamino)ethyl]benzamide] | < 10 nM |
| CCOc1ccc(C(=O)N2CCN(c3ccc(-c4cccnc4OCC)c(F)c3C(=O)NCCNC)[C@H](CC)C2)c(C(F)(F)F)n1 [Compound 1-165, 6-[(2R)-4-[6-ethoxy-2-(trifluoromethyl)pyridine-3-carbonyl]-2-ethylpiperazin-1-yl]-3-(2-ethoxypyridin-3-yl)-2-fluoro-N-[2-(methylamino)ethyl]benzamide] | < 10 nM |
| CCOc1ncccc1-c1ccc(N2CCN(C(=O)c3ccc(OC)cc3C(F)(F)F)C[C@H]2CC)c(C(=O)NCCNC)n1 [Compound 1-167, 2′-ethoxy-5-[(2R)-2-ethyl-4-[4-methoxy-2-(trifluoromethyl)benzoyl]piperazin-1-yl]-N-[2-(methylamino)ethyl]-[2,3′-bipyridine]-6-carboxamide] | < 10 nM |
| CCOc1ncccc1-c1ccc(N2CCN(C(=O)c3ccc(OC)cc3C(F)(F)F)C[C@H]2CC)c(C(=O)NCCN(C)C)c1F [Compound 1-168, N-[2-(dimethylamino)ethyl]-3-(2-ethoxypyridin-3-yl)-6-[(2R)-2-ethyl-4-[4-methoxy-2-(trifluoromethyl)benzoyl]piperazin-1-yl]-2-fluorobenzamide] | < 10 nM |
| CCOc1ncccc1-c1ccc(N2CCN(C(=O)c3ccc(OC)cc3C(F)(F)F)C[C@H]2CC)c(C(=O)NCCN(C)C)n1 [Compound 1-169, N-[2-(dimethylamino)ethyl]-2′-ethoxy-5-[(2R)-2-ethyl-4-[4-methoxy-2-(trifluoromethyl)benzoyl]piperazin-1-yl]-[2,3′-bipyridine]-6-carboxamide] | < 10 nM |
| CCOc1ncccc1-c1ccc(N2CCN(C(=O)c3ccc(OC)cc3C(F)(F)F)C[C@H]2CC)c(C(=O)NCC2=NCCN2)c1F [Compound 1-170, N-[(4,5-dihydro-1H-imidazol-2-yl)methyl]-3-(2-ethoxypyridin-3-yl)-6-[(2R)-2-ethyl-4-[4-methoxy-2-(trifluoromethyl)benzoyl]piperazin-1-yl]-2-fluorobenzamide] | < 10 nM |
| CCOc1ncccc1-c1ccc(N2CCN(C(=O)c3ccc(Cl)cc3C#N)C[C@H]2CC)c(C(=O)NCCNC)n1 [Compound 1-171, 5-[(2R)-4-(4-chloro-2-cyanobenzoyl)-2-ethylpiperazin-1-yl]-2′-ethoxy-N-[2-(methylamino)ethyl]-[2,3′-bipyridine]-6-carboxamide] | < 10 nM |
| CCOc1ncccc1-c1ccc(N2CCN(C(=O)c3ccc(Cl)cc3C(F)(F)F)C[C@H]2CC)c(C(=O)NCCN(C)C)c1F [Compound 1-173, 6-[(2R)-4-[4-chloro-2-(trifluoromethyl)benzoyl]-2-ethylpiperazin-1-yl]-N-[2-(dimethylamino)ethyl]-3-(2-ethoxypyridin-3-yl)-2-fluorobenzamide] | < 10 nM |
| CCOc1ncccc1-c1ccc(N2CCN(C(=O)c3ccc(F)cc3C(F)(F)F)C[C@H]2CC)c(C(=O)NCCN(C)C)c1F [Compound 1-174, N-[2-(dimethylamino)ethyl]-3-(2-ethoxypyridin-3-yl)-6-[(2R)-2-ethyl-4-[4-fluoro-2-(trifluoromethyl)benzoyl]piperazin-1-yl]-2-fluorobenzamide] | < 10 nM |
| CCOc1ncccc1-c1ccc(N2CCN(C(=O)c3ccc(F)cc3C(F)F)C[C@H]2CC)c(C(=O)NCCN(C)C)c1F [Compound 1-176, 6-[(2R)-4-[2-(difluoromethyl)-4-fluorobenzoyl]-2-ethylpiperazin-1-yl]-N-[2-(dimethylamino)ethyl]-3-(2-ethoxypyridin-3-yl)-2-fluorobenzamide] | < 10 nM |
| CCOc1ncccc1-c1ccc(N2CCN(C(=O)c3ccc(F)cc3C(F)F)C[C@H]2CC)c(C(=O)NCCNC)c1F [Compound 1-177, 6-[(2R)-4-[2-(difluoromethyl)-4-fluorobenzoyl]-2-ethylpiperazin-1-yl]-3-(2-ethoxypyridin-3-yl)-2-fluoro-N-[2-(methylamino)ethyl]benzamide] | < 10 nM |
| CCOc1ncccc1-c1ccc(N2CCN(C(=O)c3ccc(Cl)cc3Cl)C[C@H]2CC)c(C(=O)NCC2=NCCN2)c1F [Compound 1-178, 6-[(2R)-4-(2,4-dichlorobenzoyl)-2-ethylpiperazin-1-yl]-N-[(4,5-dihydro-1H-imidazol-2-yl)methyl]-3-(2-ethoxypyridin-3-yl)-2-fluorobenzamide] | < 10 nM |
| CCOc1ccc(C(=O)N2CCN(c3ccc(-c4cccnc4OCC)nc3C(=O)NCCNC)[C@H](CC)C2)c(C(F)(F)F)n1 [Compound 1-181, 2′-ethoxy-5-[(2R)-4-[6-ethoxy-2-(trifluoromethyl)pyridine-3-carbonyl]-2-ethylpiperazin-1-yl]-N-[2-(methylamino)ethyl]-[2,3′-bipyridine]-6-carboxamide] | < 10 nM |
| CCOc1ncccc1-c1ccc(N2CCN(C(=O)c3ccc(F)cc3C(F)(F)F)C[C@H]2CC)c(C(=O)NCC2=NCCN2)c1F [Compound 1-182, N-[(4,5-dihydro-1H-imidazol-2-yl)methyl]-3-(2-ethoxypyridin-3-yl)-6-[(2R)-2-ethyl-4-[4-fluoro-2-(trifluoromethyl)benzoyl]piperazin-1-yl]-2-fluorobenzamide] | < 10 nM |

More lines, now with the values ahead:

| Ki | Compound |
| --- | --- |
| < 10 nM | CCOc1ccc(C(=O)N2CCN(c3ccc(-c4cccnc4OCC)nc3C(=O)NCCNC)[C@H](CC)C2)c(C(F)(F)F)c1 [Compound 1-137, 2′-ethoxy-5-[(2R)-4-[4-ethoxy-2-(trifluoromethyl)benzoyl]-2-ethylpiperazin-1-yl]-N-[2-(methylamino)ethyl]-[2,3′-bipyridine]-6-carboxamide] |
| < 10 nM | CCOc1ncccc1-c1ccc(N2CCN(C(=O)c3ccc(Cl)cc3C(F)(F)F)C[C@H]2CC)c(C(=O)NC[C@H]2COCCN2)c1 [Compound 1-138, 2-[(2R)-4-[4-chloro-2-(trifluoromethyl)benzoyl]-2-ethylpiperazin-1-yl]-5-(2-ethoxypyridin-3-yl)-N-{[(3S)-morpholin-3-yl]methyl}benzamide] |
| < 10 nM | CCOc1ncccc1-c1ccc(N2CCN(C(=O)c3ccc(Cl)cc3C#N)C[C@H]2CC)c(C(=O)N[C@@H]2CCNC2)c1 [Compound 1-142, 2-[(2R)-4-(4-chloro-2-cyanobenzoyl)-2-ethylpiperazin-1-yl]-5-(2-ethoxypyridin-3-yl)-N-[(3R)-pyrrolidin-3-yl]benzamide] |
| < 10 nM | CCOc1ncccc1-c1ccc(N2CCN(C(=O)c3ccc(OC)cc3C(F)(F)F)C[C@H]2CC)c(C(=O)N[C@@H]2CCNC2)c1 [Compound 1-143, 5-(2-ethoxypyridin-3-yl)-2-[(2R)-2-ethyl-4-[4-methoxy-2-(trifluoromethyl)benzoyl]piperazin-1-yl]-N-[(3R)-pyrrolidin-3-yl]benzamide] |
| < 10 nM | CCOc1ncccc1-c1ccc(N2CCN(C(=O)c3ccc(F)cc3N3CC(N)C3)C[C@H]2CC)c(C(=O)NCCN(C)C)c1 [Compound 1-148, 2-[(2R)-4-[2-(3-aminoazetidin-1-yl)-4-fluorobenzoyl]-2-ethylpiperazin-1-yl]-N-[2-(dimethylamino)ethyl]-5-(2-ethoxypyridin-3-yl)benzamide] |
| < 10 nM | CCOc1ccccc1-c1ccc(N2CCN(C(=O)c3ccc(Cl)cc3C(F)(F)F)C[C@H]2CC)c(C(=O)NCCN(C)C)n1 [Compound 1-149, 3-[(2R)-4-[4-chloro-2-(trifluoromethyl)benzoyl]-2-ethylpiperazin-1-yl]-N-[2-(dimethylamino)ethyl]-6-(2-ethoxyphenyl)pyridine-2-carboxamide] |
| < 10 nM | CCOc1ncccc1-c1ccc(N2CCN(C(=O)c3ccc(Cl)cc3C(F)(F)F)C[C@H]2CC)c(C(=O)NCCN(C)C)n1 [Compound 1-150, 5-[(2R)-4-[4-chloro-2-(trifluoromethyl)benzoyl]-2-ethylpiperazin-1-yl]-N-[2-(dimethylamino)ethyl]-2′-ethoxy-[2,3′-bipyridine]-6-carboxamide Acetate] |
| < 10 nM | CCOc1ncccc1-c1ccc(N2CCN(C(=O)c3ccc(Cl)cc3C(F)(F)F)C[C@H]2CC)c(C(=O)N[C@@H]2CCNC2)n1 [Compound 1-151, 5-[(2R)-4-[4-chloro-2-(trifluoromethyl)benzoyl]-2-ethylpiperazin-1-yl]-2′-ethoxy-N-[(3R)-pyrrolidin-3-yl]-[2,3′-bipyridine]-6-carboxamide] |
| < 10 nM | CCOc1ncccc1-c1ccc(N2CCN(C(=O)c3ccc(Cl)cc3C(F)(F)F)C[C@H]2CC)c(C(=O)N[C@@H]2CCN(C)C2)n1 [Compound 1-152, 5-[(2R)-4-[4-chloro-2-(trifluoromethyl)benzoyl]-2-ethylpiperazin-1-yl]-2′-ethoxy-N-[(3R)-1-methylpyrrolidin-3-yl]-[2,3′-bipyridine]-6-carboxamide] |
| < 10 nM | CCOc1ncccc1-c1ccc(N2CCN(C(=O)c3ccc(OC)cc3C(F)(F)F)C[C@H]2CC)c(C(=O)NCCNC)c1F [Compound 1-155, 3-(2-ethoxypyridin-3-yl)-6-[(2R)-2-ethyl-4-[4-methoxy-2-(trifluoromethyl)benzoyl]piperazin-1-yl]-2-fluoro-N-[2-(methylamino)ethyl]benzamide] |
| < 10 nM | CCOc1ncccc1-c1ccc(N2CCN(C(=O)c3ccc(Cl)cc3Cl)C[C@H]2CC)c(C(=O)NCCNC)c1F [Compound 1-156, 6-[(2R)-4-(2,4-dichlorobenzoyl)-2-ethylpiperazin-1-yl]-3-(2-ethoxypyridin-3-yl)-2-fluoro-N-[2-(methylamino)ethyl]benzamide] |
| < 10 nM | CCOc1ncccc1-c1ccc(N2CCN(C(=O)c3ccc(NC)nc3C(F)(F)F)C[C@H]2CC)c(C(=O)NCCNC)c1F [Compound 1-163, 3-(2-ethoxypyridin-3-yl)-6-[(2R)-2-ethyl-4-[6-(methylamino)-2-(trifluoromethyl)pyridine-3-carbonyl]piperazin-1-yl]-2-fluoro-N-[2-(methylamino)ethyl]benzamide] |
